ChEMBL document CHEMBL1144765, “Des-A-ring benzothiadiazines: inhibitors of HCV genotype 1 NS5B RNA-dependent RNA polymerase” (Bioorg Med Chem Lett, 2008)

Key:
Experiment in all cases: microbe, parasite or virus in culture
Hepatitis C virus [1] = settings: genotype 1b
Description: Antiviral activity against HCV 1b in presence of 40% human serum by replicon based assay

Hepatitis C virus [2] = settings: subtype 1a
Description: Antiviral activity against HCV 1a by replicon based assay

Hepatitis C virus [3] = settings: genotype 1b; remark: listed apart in the source
Description: Antiviral activity against HCV 1b in presence of 5% fetal calf serum by replicon based assay

Hepatitis C virus [4] = settings: genotype 1b; remark: listed apart in the source
Description: Antiviral activity against HCV 1b by replicon based assay

Compound	EC50 (Hepatitis C virus [1]) [nM]	EC50 (Hepatitis C virus [2]) [nM]	EC50 (Hepatitis C virus [3]) [nM]	EC50 (Hepatitis C virus [4]) [nM]
CC(C)CCn1c(=O)c(C2=NS(=O)(=O)c3cc(NS(C)(=O)=O)ccc3N2)c(O)c2cccnc21	736	16	2	2
C/C=C/c1cn(CCC(C)C)c(=O)c(C2=NS(=O)(=O)c3cc(NS(C)(=O)=O)ccc3N2)c1O	38.2	–	5.6	–
CC(C)CCn1ccc(O)c(C2=NS(=O)(=O)c3cc(NS(C)(=O)=O)ccc3N2)c1=O	911	–	163	–
C=Cc1cn(CCC(C)C)c(=O)c(C2=NS(=O)(=O)c3cc(NS(C)(=O)=O)ccc3N2)c1O	62.5	–	8.8	–
